Test results reported in patent US20250144067A1, “PERSONALIZED STARVATION THERAPY FOR CANCER” (Faeth Therapeutics, Inc., priority 2021, published 2025).
Counter-ions that a name gives are not always drawn.

Key:
[1] = system: NCI-H292 lung cancer cells; test: FDA drug screening, complete media vs cholesterol-free media without statin (TABLE 1); type: cell-based, human
[2] = system: NCI-H292 lung cancer cells; test: FDA drug screening, complete media vs cholesterol-free media with simvastatin (TABLE 2); type: cell-based, human; conditions: for Cholesterol-free media + simvastatin (0.04 μM) / Complete Media: NCI-H292 cells
[3] = Complete minus Cholesterol-free, […]
[4] = FDA library drug in cholesterol-free media with simvastatin 0.04 μM
[5] = FDA library drug in complete media
[6] = complete media vs cholesterol-free media + simvastatin (0.04 μM), […]
[7] = Complete minus Cholesterol-free, >0 enhanced anti-cancer activity, about 0 neutral, <0 antagonist
[8] = NCI-H292 cells, cholesterol-free media without statin, FDA drug library screen
[9] = NCI-H292 cells, complete media, FDA drug library screen
[10] = cholesterol-free media with simvastatin 0.04 μM, FDA drug library screen (TABLE 2)
[11] = complete media, FDA drug library screen (TABLE 2)
[12] = complete media minus cholesterol-free media + simvastatin (0.04 μM), >0 enhanced anti-cancer activity, about 0 neutral, <0 antagonist
[13] = complete vs cholesterol-free media, >0 enhanced anti-cancer activity, about 0 neutral, <0 antagonist
[14] = NCI-H292 cells, FDA drug library screen, cholesterol-free media without statin
[15] = NCI-H292 cells, FDA drug library screen, complete media
[16] = FDA drug library screen, cholesterol-free media with simvastatin 0.04 μM
[17] = FDA drug library screen, complete media
[18] = complete media minus cholesterol-free media + simvastatin, >0 enhanced anti-cancer activity, about 0 neutral, <0 antagonist
[19] = Complete minus Cholesterol-free, greater than 0 enhanced anti-cancer activity, about 0 neutral, below 0 antagonist
[20] = NCI-H292 cells, cholesterol-free media without statin
[21] = cholesterol-free media with simvastatin 0.04 μM, cell growth value in FDA drug screen
[22] = complete media, cell growth value in FDA drug screen
[23] = complete vs cholesterol-free media, greater than 0 enhanced anti-cancer activity, about 0 neutral, below 0 antagonists
[24] = complete media vs cholesterol-free media + simvastatin (0.04 μM), >0 enhanced anti-cancer activity, about 0 neutral, <0 antagonist
[25] = drug in cholesterol-free media with simvastatin 0.04 μM

Ketotifen (fumarate)
Difference [1, 3]: −0.71 | Cholesterol-free ([1]; NCI-H292 cells in cholesterol-free media without statin): 1.545 | Complete ([1]; NCI-H292 cells in complete media): 0.8394 | Cholesterol-free media + simvastatin (0.04 μM) [2, 4]: 1.876 | Complete Media [2, 5]: 1.552 | Difference [2, 6]: −0.32

CCC(=O)c1c(O)cc(O)cc1O [Flopropione]
Difference [1, 7]: −0.07 | Cholesterol-free [1, 8]: 1.019 | Complete [1, 9]: 0.9515 | Cholesterol-free media + simvastatin (0.04 μM) [2, 10]: 1.103 | Complete Media [2, 11]: 1.044 | Difference [2, 12]: −0.06

OCC(O)CO [Glycerol]
Cholesterol-free [1, 8]: 0.984 | Complete [1, 9]: 1.096 | Difference [1, 13]: 0.11 | Cholesterol-free media + simvastatin (0.04 μM) [2, 10]: 1.066 | Complete Media [2, 11]: 1.039 | Difference [2, 12]: −0.03

CC[N+](C)(C)c1cccc(O)c1.[Cl-] [Edrophonium (chloride)]
Difference [1, 3]: −0.15 | Cholesterol-free [1, 14]: 1.134 | Complete [1, 15]: 0.9821 | Cholesterol-free media + simvastatin (0.04 μM) ([2]; cholesterol-free media with simvastatin 0.04 μM, […]): 1.155 | Complete Media ([2]; complete media, […]): 1.199 | Difference ([2]; complete media minus cholesterol-free media + simvastatin, […]): 0.04

CC(C)CN(C[C@@H](O)[C@H](Cc1ccccc1)NC(=O)O[C@H]1CCOC1)S(=O)(=O)c1ccc(N)cc1 [Amprenavir]
Cholesterol-free [1, 8]: 0.8915 | Complete [1, 9]: 1.403 | Difference [1, 13]: 0.51 | Cholesterol-free media + simvastatin (0.04 μM) [2, 16]: 1.669 | Complete Media [2, 17]: 1.996 | Difference [2, 18]: 0.33

CN(C)CCC=C1c2ccccc2COc2ccccc21 [Doxepin (Hydrochloride)]
Difference [1, 19]: −0.11 | Cholesterol-free [1, 14]: 1.23 | Complete [1, 15]: 1.122 | Cholesterol-free media + simvastatin (0.04 μM) [2, 16]: 0.8618 | Complete Media [2, 17]: 1.158 | Difference [2, 18]: 0.30

CC1=C[C@]23C(=O)[C@@H](C=C(CO)[C@@H](O)[C@]2(O)[C@H]1O)[C@H]1[C@@H](C[C@H]3C)C1(C)C [Ingenol]
Difference [1, 3]: −0.29 | Cholesterol-free [1, 20]: 0.932 | Complete ([1]; NCI-H292 cells, complete media): 0.6376 | Cholesterol-free media + simvastatin (0.04 μM) [2, 16]: 1.056 | Complete Media [2, 17]: 0.969 | Difference [2, 6]: −0.09

C[C@@H](Oc1cc(-c2cnn(C3CCNCC3)c2)cnc1N)c1c(Cl)ccc(F)c1Cl [Crizotinib (hydrochloride)]
Cholesterol-free [1, 8]: 0.1813 | Complete [1, 9]: 0.2796 | Difference [1, 13]: 0.10 | Cholesterol-free media + simvastatin (0.04 μM) [2, 21]: 0.4168 | Complete Media [2, 22]: 0.4474 | Difference [2, 18]: 0.03

O=C(O)c1cn(C2CC2)c2cc(N3CCNCC3)c(F)cc2c1=O [Ciprofloxacin]
Cholesterol-free [1, 20]: 1.503 | Complete ([1]; NCI-H292 cells, complete media): 1.066 | Difference [1, 23]: −0.44 | Cholesterol-free media + simvastatin (0.04 μM) [2, 21]: 0.9642 | Complete Media [2, 22]: 1.043 | Difference [2, 18]: 0.08

CO[C@]12C[C@@H](COC(=O)c3cncc(Br)c3)CN(C)[C@@H]1Cc1cn(C)c3cccc2c13 [Nicergoline]
Cholesterol-free [1, 8]: 0.9355 | Complete [1, 9]: 1.445 | Difference [1, 13]: 0.51 | Cholesterol-free media + simvastatin (0.04 μM) [2, 4]: 1.053 | Complete Media [2, 5]: 0.4708 | Difference [2, 24]: −0.58

Cn1ncnc1[C@H]1c2n[nH]c(=O)c3cc(F)cc(c23)N[C@@H]1c1ccc(F)cc1 [Talazoparib tosylate]
Difference [1, 7]: 0.05 | Cholesterol-free [1, 8]: 0.1398 | Complete [1, 9]: 0.1924 | Cholesterol-free media + simvastatin (0.04 μM) [2, 4]: 0.5996 | Complete Media [2, 5]: 0.312 | Difference [2, 24]: −0.29

OC[C@@H](O)CN1CCN(c2ccccc2)CC1 [Levodropropizine]
Difference [1, 19]: −0.15 | Cholesterol-free [1, 14]: 0.946 | Complete [1, 15]: 0.7999 | Cholesterol-free media + simvastatin (0.04 μM) [2, 16]: 1.096 | Complete Media [2, 17]: 0.9475 | Difference [2, 24]: −0.15

CC1(C)S[C@@H]2[C@H](NC(=O)[C@H](N)c3ccccc3)C(=O)N2[C@H]1C(=O)O [Ampicillin]
Cholesterol-free [1, 8]: 0.9318 | Complete [1, 9]: 1.363 | Difference [1, 13]: 0.43 | Cholesterol-free media + simvastatin (0.04 μM) [2, 4]: 1.07 | Complete Media [2, 5]: 0.7564 | Difference [2, 24]: −0.31

CC(=O)OCC(=O)[C@@]12OC(C)(C)O[C@@H]1C[C@H]1[C@@H]3C[C@H](F)C4=CC(=O)C=C[C@]4(C)[C@@]3(F)[C@@H](O)C[C@@]12C [Fluocinonide]
Difference [1, 7]: −0.04 | Cholesterol-free [1, 8]: 0.5848 | Complete [1, 9]: 0.544 | Cholesterol-free media + simvastatin (0.04 μM) [2, 16]: 0.6998 | Complete Media [2, 17]: 0.898 | Difference [2, 18]: 0.20

O=[N+]([O-])c1cn2c(n1)OC[C@@H](OCc1ccc(OC(F)(F)F)cc1)C2 [Pretomanid]
Difference [1, 7]: −0.21 | Cholesterol-free [1, 20]: 1.474 | Complete ([1]; NCI-H292 cells, complete media): 1.26 | Cholesterol-free media + simvastatin (0.04 μM) [2, 4]: 1.251 | Complete Media [2, 5]: 0.9046 | Difference [2, 24]: −0.35

Valemetostat (tosylate)
Cholesterol-free [1, 20]: 1.464 | Complete ([1]; NCI-H292 cells, complete media): 1.052 | Difference ([1]; complete vs cholesterol-free media, […]): −0.41 | Cholesterol-free media + simvastatin (0.04 μM) [2, 25]: 1.195 | Complete Media ([2]; drug in complete media): 0.9379 | Difference [2, 6]: −0.26

CCCCC1=NC2(CCCC2)C(=O)N1Cc1ccc(-c2ccccc2-c2nnn[nH]2)cc1 [Irbesartan]
Difference [1, 19]: −0.08 | Cholesterol-free [1, 14]: 0.8711 | Complete [1, 15]: 0.7887 | Cholesterol-free media + simvastatin (0.04 μM) [2, 21]: 0.9096 | Complete Media [2, 22]: 0.9697 | Difference [2, 18]: 0.06

CCc1cc2c(cc1N1CCC(N3CCOCC3)CC1)C(C)(C)c1[nH]c3cc(C#N)ccc3c1C2=O [Alectinib (Hydrochloride)]
Cholesterol-free [1, 8]: 0.7945 | Complete [1, 9]: 1.394 | Difference [1, 13]: 0.60 | Cholesterol-free media + simvastatin (0.04 μM) [2, 25]: 0.8676 | Complete Media ([2]; drug in complete media): 0.6682 | Difference [2, 24]: −0.20

Nc1nc(CC(=O)Nc2ccc(CCNC[C@H](O)c3ccccc3)cc2)cs1 [Mirabegron]
Cholesterol-free [1, 20]: 1.131 | Complete ([1]; NCI-H292 cells, complete media): 0.7731 | Difference [1, 23]: −0.36 | Cholesterol-free media + simvastatin (0.04 μM) [2, 16]: 1.317 | Complete Media [2, 17]: 1.183 | Difference [2, 24]: −0.13

C[C@]12C=CC(=O)C=C1CC[C@H]1[C@@H]3C[C@@H](O)[C@](O)(C(=O)CO)[C@@]3(C)C[C@H](O)[C@@]12F [Triamcinolone]
Difference [1, 7]: −0.27 | Cholesterol-free [1, 20]: 0.8896 | Complete ([1]; NCI-H292 cells, complete media): 0.6155 | Cholesterol-free media + simvastatin (0.04 μM) [2, 10]: 1.201 | Difference [2, 12]: −0.04

O=c1cc(-c2ccccc2)oc2cc(O)c(O)c(O)c12 [Baicalein]
Cholesterol-free [1, 20]: 1.261 | Complete ([1]; NCI-H292 cells, complete media): 0.9313 | Difference [1, 23]: −0.33 | Cholesterol-free media + simvastatin (0.04 μM) [2, 25]: 1.347 | Complete Media ([2]; drug in complete media): 1.087 | Difference [2, 24]: −0.26

COc1cc2c(cc1OC)C1CC(=O)C(CC(C)C)CN1CC2 (centres unmarked) [Tetrabenazine]
Cholesterol-free [1, 20]: 1.615 | Complete ([1]; NCI-H292 cells, complete media): 1.162 | Difference [1, 23]: −0.45 | Cholesterol-free media + simvastatin (0.04 μM) [2, 25]: 1.249 | Complete Media ([2]; drug in complete media): 1.01 | Difference [2, 24]: −0.24

COc1ccc2c(c1OC)C(=O)O[C@@H]2[C@H]1c2c(cc3c(c2OC)OCO3)CCN1C [Noscapine]
Difference [1, 7]: −0.20 | Cholesterol-free [1, 20]: 1.288 | Complete ([1]; NCI-H292 cells, complete media): 1.088 | Cholesterol-free media + simvastatin (0.04 μM) [2, 16]: 0.7586 | Complete Media [2, 17]: 1.21 | Difference [2, 18]: 0.45
